Data set [1] concerns Ear Edema Caused by Arachidonic Acid. The experiment in a line: Suppressing effect on ear edema caused by arachidonic acid. In kind it is in vivo, ICR male mice. The settings on record: Mus musculus, 1 h, thickness after one hour, read-out: Suppression rate (ear edema); for inhibition in vivo at 50 mg/kg: oral administration, one hour before inflammatory agent (2 mg arachidonic acid); for inhibition in vivo at 0.1 mg: topical, local application, 0.1 mg/auricle, 30 min before inflammatory agent (2 mg arachidonic acid). The protocol: The thickness of auricles of ICR male mice of 6 week-age was measured by using a micrometer. On both sides of one of the auricles of each mouse, was applied 2 mg of arachidonic acid dissolved in acetone as the inflammatory agent to cause inflammation thereon. The thickness of the auricle after one hour of the application was measured and the difference between the thickness obtained and the thickness before the application was taken as the value of ear edema. The compound according to the present invention dissolved in ethanol or only ethanol as a control were orally administrated or applied localy. In the case of oral administration, 50 mg/kg of the compound according to the present invention was administrated one hour before the application of the inflammatory agent, and 0.1 mg/auricle was applied 30 min before the application in the case of local application.
The suppression rate of ear edema of the compound according to the present invention was calculated based on the ratio of the suppression to the value of ear edema in the control group and the results are shown in Tables 6 and 7 (Compound numbers in Tables 6 and 7 correspond to the Compound numbers in Table 1).
Further, benoxaprofen and NDGA were used as the comparison.

For data set [2] the following is noted: literature; cited from earlier work.
Another data set addresses T1, lipoxygenase (Rattus norvegicus, UniProt P12527).
T1 construct: abdominal cells of Wister rat (7 to 12 week-age); endogenous in cells; host or cells: abdominal (peritoneal) cells of Wister [Wistar] rat
T1 sequence (P12527 1-673): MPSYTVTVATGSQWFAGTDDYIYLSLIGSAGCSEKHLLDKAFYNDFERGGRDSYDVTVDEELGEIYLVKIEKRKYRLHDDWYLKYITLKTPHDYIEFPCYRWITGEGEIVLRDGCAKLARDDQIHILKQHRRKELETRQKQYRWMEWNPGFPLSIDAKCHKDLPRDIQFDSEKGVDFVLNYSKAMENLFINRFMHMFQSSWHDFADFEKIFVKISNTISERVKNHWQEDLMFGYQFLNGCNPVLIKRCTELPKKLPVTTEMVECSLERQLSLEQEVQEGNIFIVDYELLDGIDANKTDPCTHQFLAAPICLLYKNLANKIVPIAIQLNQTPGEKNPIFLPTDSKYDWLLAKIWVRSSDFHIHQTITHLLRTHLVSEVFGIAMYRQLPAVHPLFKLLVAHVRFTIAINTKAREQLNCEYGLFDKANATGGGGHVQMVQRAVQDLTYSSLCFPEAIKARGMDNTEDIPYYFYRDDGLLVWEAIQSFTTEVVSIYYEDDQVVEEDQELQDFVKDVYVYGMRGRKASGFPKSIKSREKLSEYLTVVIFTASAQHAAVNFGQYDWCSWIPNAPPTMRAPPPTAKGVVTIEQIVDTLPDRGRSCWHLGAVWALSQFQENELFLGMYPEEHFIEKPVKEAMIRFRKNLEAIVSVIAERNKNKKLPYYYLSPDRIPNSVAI
As to the kind of experiment: Inhibition activity to lipoxygenase (leukotriene production by rat abdominal cells, bioassay on guinea pig ileum). In kind it is cell-based, Wister rat. The settings on record: read-out: Inhibition intensity; for inhibition at 1 µM: 10^-6 M (final concentration). The protocol: In 0.9 ml of Hunks' solution, were suspended 2×10^6 of abdominal cells of Wister rat (7 to 12 week-age) and incubated at 37° C. for 15 min after adding 10^-7 M of arachidonic acid and the compound of the present invention dissolved in ethanol, or only 10^-7 M of arachidonic acid and ethanol as a control. Further, 100 μl of 5 μg/μl of calcium inonophore A-23187 was added and the incubation was further continued at 37° C. for 15 min to produce leukotrienes. After cooling the reaction mixture with ice for 20 min to terminate the reaction, the reaction mixture was subjected to centrifugation at 4° C. for 10 min at 3000 rpm. The inhibition activity to lipoxygenase of the compound according to the present invention was measured by bioassay of leukotrienes contained in the resultant supernatants by using a Magunus' device while taking the contraction reaction of ileum extirpated from guinea pig as the indication. The inhibition rate of the compound according to the present invention was calculated based on the ratio of the suppression due to the compound with respect to the extent of the contraction reaction in the control group, and the intensity of inhibition based thereon is shown in the following Tables 4 and 5 (Compound numbers in Tables 4 and 5 correspond to the Compound numbers in Table 1).

On the set-up of data set [3]: species or system ICR male mice. The settings on record: mouse, in vivo, po, 2000 mg/kg. As for the experimental part: The compounds according to the present invention (Compound No. 44 in Table 1) suspended in an aqueous 1% tragacanth solution was orally administrated by 2000 mg/kg to 6 week-age ICR male mice.
The mark [4] stands for this setting: 10^-5 M (final concentration), rat abdominal cells, calcium ionophore A-23187.
Where [5] appears, read: rat abdominal cells, calcium ionophore A-23187.

The term inhibition denotes the relative decrease from the control value, in per cent.

Where two headings read alike, the source gives them in different places.

Regarding `CC(C(=O)O)c1ccc2oc(-c3ccc(Cl)cc3)nc2c1` (centres unmarked) [Benoxaprofen, benoxaprofen], in data set [1], the inhibition in vivo at 50 mg/kg was found to be 15.3%. Besides, in data set [2], the adverse effect result is on record as “grave adverse effect” and the effect on psoriasis result is reported as “effective to psoriasis”.

As for `c1ccc(OCCCOc2ccc(Cc3nc4ccccc4s3)cc2)cc1` [Compound 1, 2-[4-(3-phenoxy)propoxybenzyl]benzothiazole], at lipoxygenase (setting [4]), the inhibition at 10 µM lay in the range of 80 to 100%. Moreover, the inhibition at 1 µM at lipoxygenase (setting [5]) fell in the range of 20 to 50%.

As for `c1ccc(OCCCOc2ccc(Cc3nc4ccccc4o3)cc2)cc1` [Compound 2, 2-[4-(3-phenoxy)propoxybenzyl]benzoxazole], the inhibition at 10 µM on lipoxygenase (setting [4]) was in the range of 80 to 100%. Further, the inhibition at 1 µM at lipoxygenase (setting [5]) was 20 to 50%.

Regarding `c1ccc(OCCCCCCOc2ccc(Cc3nc4ccccc4o3)cc2)cc1` [Compound 5], the inhibition at 10 µM on lipoxygenase (setting [4]) lay within 80 to 100%. Further, on lipoxygenase (setting [5]), the inhibition at 1 µM is 20 to 50%.

As to `Clc1cc(OCCCCOc2ccccc2)ccc1Cc1nc2ccccc2o1` [Compound 6], the inhibition at 10 µM on lipoxygenase (setting [4]) fell in the range of 80 to 100%. In addition, in data set [1], the inhibition in vivo at 0.1 mg stood at 48.5%.

As to `Clc1ccccc1OCCCCOc1ccc(Cc2nc3ccccc3o2)cc1` [Compound 7], on lipoxygenase (setting [4]), the inhibition at 10 µM was 50 to 80%. At lipoxygenase (setting [5]), the inhibition at 1 µM was in the range of 20 to 50%.

On to `Cc1ccccc1OCCCCOc1ccc(Cc2nc3ccccc3o2)cc1` [Compound 10], for which the inhibition at 10 µM on lipoxygenase (setting [4]) fell in the range of 50 to 80%. Further, the inhibition at 1 µM at lipoxygenase (setting [5]) was in the range of 20 to 50%.

With `Fc1ccc(OCCCCOc2ccc(Cc3nc4ccccc4o3)cc2)cc1` [Compound 15], the inhibition at 10 µM on lipoxygenase (setting [4]) lay within 50 to 80%. The inhibition at 1 µM on lipoxygenase (setting [5]) is 20 to 50%.

Consider `c1ccc(COCCCOc2ccc(Cc3nc4ccccc4o3)cc2)cc1` [Compound 19], for which, on lipoxygenase (setting [4]), the inhibition at 10 µM was in the range of 80 to 100%. Further, at lipoxygenase (setting [5]), the inhibition at 1 µM is 50 to 80%.

As to `COCCCCOc1ccc(Cc2nc3ccccc3o2)cc1` [Compound 25], the inhibition at 10 µM at lipoxygenase (setting [4]) was in the range of 50 to 80%. For the same compound, the inhibition at 1 µM on lipoxygenase (setting [5]) lay in the range of 20 to 50%.

With `C(#Cc1ccccc1)CCCOc1ccc(Cc2nc3ccccc3o2)cc1` [Compound 29], the inhibition at 10 µM at lipoxygenase (setting [4]) was in the range of 80 to 100%. Moreover, the inhibition at 1 µM on lipoxygenase (setting [5]) was 20 to 50%.

Turning to `CC#CCOc1ccc(Cc2nc3ccccc3o2)c(Cl)c1` [Compound 34], the inhibition at 10 µM on lipoxygenase (setting [4]) fell in the range of 50 to 80%. Also, the inhibition in vivo at 0.1 mg in data set [1] came to 42.9%.

Take `CCCC#CCOc1ccc(Cc2nc3ccccc3o2)cc1` [Compound 37]: on lipoxygenase (setting [4]), the inhibition at 10 µM fell in the range of 80 to 100%. On lipoxygenase (setting [5]), the inhibition at 1 µM lay within 20 to 50%. In addition, the inhibition in vivo at 0.1 mg in data set [1] turned out to be 42.1%.

As for `Clc1cc(Cc2nc3ccccc3o2)ccc1OCCCCOc1ccccc1` [Compound 44], the inhibition at 10 µM at lipoxygenase (setting [4]) was 80 to 100%. Moreover, the inhibition at 1 µM on lipoxygenase (setting [5]) fell in the range of 50 to 80%. Moreover, the inhibition in vivo at 50 mg/kg in data set [1] was found to be 80.7%. In addition, in data set [3], the Anatomic inspection result is recorded as “no abnormality was observed”; the “Condition and body weight” value is on record as “no change was recognized at all”.

Take `Clc1cc(Cc2nc3ccccc3o2)ccc1OCCCC#Cc1ccccc1` [Compound 47]: the inhibition at 10 µM on lipoxygenase (setting [4]) lay in the range of 80 to 100%.

On to `COCCCCOc1ccc(Cc2nc3ccccc3o2)cc1Cl` [Compound 51], for which the inhibition at 10 µM at lipoxygenase (setting [4]) lay within 80 to 100%. Moreover, on lipoxygenase (setting [5]), the inhibition at 1 µM was 50 to 80%.

For the compound `OCC#CCCCC#CCCCOc1ccc(Cc2nc3ccccc3o2)cc1Cl` [Compound 57], the inhibition at 10 µM on lipoxygenase (setting [4]) was 80 to 100%. Also, in data set [1], the inhibition in vivo at 0.1 mg came to 49.8%.

For the compound `Clc1ccc(OCCCCOc2ccc(Cc3nc4ccccc4o3)cc2Cl)cc1` [Compound 62], the inhibition at 10 µM at lipoxygenase (setting [4]) lay in the range of 50 to 80%. The inhibition at 1 µM on lipoxygenase (setting [5]) lay in the range of 20 to 50%. Further, the inhibition in vivo at 0.1 mg in data set [1] amounted to 32.9%.

On to `CCCCOc1cccc(Cc2nc3ccccc3o2)c1` [Compound 71], for which the inhibition at 10 µM at lipoxygenase (setting [4]) lay within 80 to 100%. Also, in data set [1], the inhibition in vivo at 50 mg/kg came out at 77.9%.

Turning to `CC#CCOc1cccc(Cc2nc3ccccc3o2)c1` [Compound 73], the inhibition at 10 µM at lipoxygenase (setting [4]) lay in the range of 80 to 100%. The inhibition at 1 µM on lipoxygenase (setting [5]) is 20 to 50%. For the same compound, the inhibition in vivo at 50 mg/kg in data set [1] was 85.1%.

With `C(#Cc1ccccc1)CCCOc1ccccc1Cc1nc2ccccc2o1` [Compound 89], at lipoxygenase (setting [4]), the inhibition at 10 µM fell in the range of 50 to 80%. Further, on lipoxygenase (setting [5]), the inhibition at 1 µM fell in the range of 20 to 50%.

For `C(#CCOc1ccccc1Cc1nc2ccccc2o1)CCCC#Cc1ccccc1` [Compound 90], at lipoxygenase (setting [4]), the inhibition at 10 µM was in the range of 80 to 100%. Also, the inhibition at 1 µM at lipoxygenase (setting [5]) was 20 to 50%.

Take `CC#CCOc1ccccc1Cc1nc2ccccc2o1` [Compound 96]: the inhibition at 10 µM at lipoxygenase (setting [4]) lay within 80 to 100%. The inhibition in vivo at 50 mg/kg in data set [1] amounted to 71.8%.

Consider `C#CCCCC#CCOc1ccccc1Cc1nc2ccccc2o1` [Compound 98], for which the inhibition at 10 µM at lipoxygenase (setting [4]) is 50 to 80%. For the same compound, the inhibition in vivo at 0.1 mg in data set [1] worked out at 50.2%.

In the case of `CC#CCOc1cccc(Cl)c1Cc1nc2ccccc2o1` [Compound 100], at lipoxygenase (setting [4]), the inhibition at 10 µM was in the range of 80 to 100%. Further, the inhibition at 1 µM on lipoxygenase (setting [5]) is 50 to 80%.

For the compound `C#CCCCOc1ccc(Cl)cc1Cc1nc2ccccc2o1` [Compound 112], the inhibition at 10 µM on lipoxygenase (setting [4]) lay within 50 to 80%. At lipoxygenase (setting [5]), the inhibition at 1 µM fell in the range of 20 to 50%.

For the compound `C#CCCCOc1c(Cl)cccc1Cc1nc(-c2ccccc2)co1` [Compound 125], the inhibition in vivo at 0.1 mg in data set [1] worked out at 41.7%.

In the case of `CC#CCOc1cccc(Cc2nc(-c3ccccc3)co2)c1` [Compound 129], at lipoxygenase (setting [4]), the inhibition at 10 µM lay within 50 to 80%.

`CC(Cc1ccc(O)c(O)c1)C(C)Cc1ccc(O)c(O)c1` (centres unmarked) [NDGA, Nordihydroguaiaretic acid, reference compound]: on lipoxygenase, the inhibition at 10 µM fell in the range of 0 to 20%. The inhibition in vivo at 0.1 mg in data set [1] is 18.2%.

The record behind these values is patent US5206255A, “Heterocyclic compound” (Mitsubishi Kasei Corporation, priority 1989, dated 1993).
